Results from paper doi:10.1101/2025.03.14.643404, “A Bivalent Molecular Glue Linking Lysine Acetyltransferases to Oncogene-induced Cell Death” (bioRxiv, 2025).

System: H2BK20ac
Test: ChIP-seq for H2BK20ac in SUDHL5
Format: cell-based, human
Settings: SUDHL5, 1 nM, 1 hour
Procedure: 25–30 million cells were treated with TCIP3 or DMSO for indicated timepoints. Cells were washed in PBS containing TCIP3 or DMSO and crosslinked for 11 min in CiA Fix Buffer (50 mM HEPES pH 8.0, 1 mM EDTA, 0.5 mM EGTA, 100 mM NaCl) with addition of formaldehyde to a final concentration of 1%. The crosslinking reaction was quenched by glycine added at 0.125 M final concentration. Crosslinked cells were centrifuged at 1,000 × g for 5 min. […] Library size distributions were confirmed using an Agilent Bioanalyzer and High Sensitivity DNA reagents (Agilent 5067) and concentrations determined by qPCR. […]
The data quality was checked using fastq (https://www.bioinformatics.babraham.ac.uk/projects/fastqc/). The raw reads were trimmed from adapters with cutadapt (parameters: -a […] -A […]) and raw reads were aligned to hg38 human genome assembly using bowtie2 (parameters: --local --maxins 1000). Low quality reads, duplicated reads and reads with multiple alignments were removed using samtools[120] and Picard (https://broadinstitute.github.io/picard/). macs2[121] was used to map position of peaks with FDR cutoff of 0.05. […] All browser tracks and metaprofiles shown were calculated with sequence-depth-normalized, replicate-merged (bigWigMerge[125]) and, for ChIP-seq, input-subtracted data (deeptools bigWigCompare). […]

**Q.** Which H2BK20ac peaks gained does the source give for CNC(=O)COc1cc2cc(Nc3nc(N4CCC(C(=O)N5CCN(CCC(=O)N6CCC(n7nc(N8CCCc9cc(-c%10cnn(C)c%10)c(C(F)F)cc98)c8c7CCN(C(=O)NC)C8)CC6)CC5)CC4)ncc3Cl)cc(OC)c2n(C)c1=O [TCIP3] here?
**A.** 936

**Q.** What about the H2BK20ac peaks lost of the same compound?
**A.** 4,346
